In BindingDB's records for doi:10.1016/j.ejmech.2018.09.067 (University of Louvain, 2018):

Assays:
[1] = Inhibition of human MAGL
[2] = Inhibition of human thrombin using Z-GPR-AMC as substrate after 30 mins by fluorimetric analysis
[3] = Inhibition of human MAOA using kynuramine as substrate after 20 mins by spectrophotometric analysis
[4] = Inhibition of human recombinant PDE3A using [3H]cAMP after 20 mins by scintillation counting analysis
[5] = Inhibition of human IDO using L-tryptophan as substrate after 30 mins by Ehrlich's reagent based assay
[6] = Inhibition of human recombinant COX1 using arachidonic acid as substrate after 3 mins by fluorimetric analysis
[7] = Inhibition of human recombinant ACE using Abz-FRK(Dnp)-P-OH as substrate after 30 mins by fluorimetric analysis
[8] = Displacement of [3H]CP 55940 from human recombinant CB1 receptor after 120 mins by scintillation counting analysis
[9] = Inhibition of human recombinant Lck using Ulight-Poly GAT[EAY(1:1:1)]n as substrate after 10 mins by LANCE analysis
[10] = Displacement of [3H]8-OH-DPAT from recombinant human 5-HT1A receptor after 60 mins by scintillation counting analysis
[11] = Displacement of [125I]pirenzepine from human recombinant M1 receptor after 60 mins by scintillation counting analysis
[12] = Inhibition of human recombinant full-length LDHA using sodium pyruvate as substrate after 60 mins by resazurin dye-based assay
[13] = Inhibition of human carbonic anhydrase 2 using 4-nitrophenyl acetate as substrate after 20 mins by spectrophotometric analysis
[14] = Displacement of [3H]muscimol from recombinant human GABAalpha1beta2gamma2 measured after 120 mins by scintillation counting method
[15] = Inhibition of human recombinant acetylcholinesterase using acetylthiocholine as substrate after 30 mins by spectrophotometric analysis
[16] = Inhibition of human recombinant C-terminal His-tagged PHGDH (1 to 533 residues) expressed in Escherichia coli using 3-phosphoglycerate as substrate
[17] = Displacement of [3H]WY 14643 from human recombinant PPARalpha receptor at 10 uM after 120 mins by scintillation counting analysis relative to control
[18] = Inhibition of human recombinant Arg1 using L-arginine as substrate after 5 mins in presence of [guanidino-14C]-L-arginine by liquid scintillation counting analysis

O=C(NNC(=S)Nc1ccc(Cl)c(Cl)c1)c1ccccc1O
IC50 [1]: 363 nM
IC50 [2]: 0.103 nM
IC50 [3]: 40 nM
IC50 [4]: 490 nM
IC50 [5]: 37000 nM
IC50 [6]: 8 nM
IC50 [7]: 0.7 nM
IC50 [8]: 0.58 nM
IC50 [9]: 31 nM
IC50 [10]: 0.6 nM
IC50 [11]: 22 nM
IC50 [12]: 577000 nM
IC50 [13]: 29 nM
IC50 [14]: 75 nM
IC50 [15]: 520 nM
IC50 [16]: 8700 nM
IC50 [17]: 52 nM
IC50 [18]: 13000 nM
